Values quoted from earlier work as cited in patent US20170128401A1, “DIETARY COMPOSITION FOR IMPROVED PERFORMANCE” (priority 2015, published 2017).

Assays:
[1] = 750 mg dose; 85% VO2 max
[2] = system: subjects; conditions: 400 mg of phosphatidylserine
[3] = system: healthy adults; conditions: in vivo
[4] = system: healthy adults; conditions: in vivo; remark: listed apart in the source

Compound | increase time to exhaustion in anaerobic events [1] [%+/−8] | decrease in wrong answers (test accuracy) [2] [%] | increase in correct answers (test accuracy) [2] [%] | increase speed of calculations [2] [%] | carbohydrate absorption [3] | VO2max [4]
phosphatidylserine | 29 | 39 | 13 | 20 |  | 
O=C(O[C@@H]1Cc2c(O)cc(O)cc2O[C@@H]1c1cc(O)c(O)c(O)c1)c1cc(O)c(O)c(O)c1 [EGCG, epigallocatechin gallate] |  |  |  |  | significantly decreased | increased
